The source of these data is patent US20120207743A1 (priority 2011, published 2012).

For this test, the system named is DU-145 cells. The class given is cell-based, Human.

Regarding `C=C1[C@@H](C)[C@H]2[C@H](Cc3ccccc3)NC(=O)[C@]23[C@H](OC(C)=O)/C=C/[C@@](C)(O)C(=O)[C@@H](C)C/C=C/[C@H]3[C@@H]1O` [Cytochalasin-D], the “Reduction in cell migration compared to cells treated with media alone” value is “did not migrate”; the “Relative Wound Density at 24 Hours, Mean” value was determined as 3.3 ± 0.2; the “Relative Wound Density at 24 Hours, Percent Relative to Media” value is listed as 4%.
